Structures can show the parent of a compound that is named as a salt.
Key:
Type in all cases: in vivo
[1] = test system: P.C.A. reaction in S.D. strain rats; assay: Inhibition test of P.C.A. reaction in S.D. strain rats, rat hyperimmune antiserum against egg albumin
Experimental: (b) Rat hyperimmune antiserum against egg albumin
A solution of egg albumin (20 mg.) in normal saline (1 ml.) was mixed with complete adjuvant (1 ml.) (made by Difco Laboratories) to given an emulsion. The emulsion was subcutaneously given in a single dose of 1 ml. divided equally (0.25 ml.) to the four pads of male S.D. strain rats aged 6 weeks, each weighing about 200 g. (The first immunization).
One week after the administration, an emulsion which was prepared by mixing a solution of egg albumin (10 mg.) in normal saline (1 ml.) with complete adjuvant (1 ml.) was further given subcutaneously (at 3 places) and intramuscularly (at 1 place) in a single dose of 1 ml. divided equally (0.25 ml.) to thigh of the same rats. (The second immunization).
Three weeks after the second administration, a solution of egg albumin (1 mg.) in normal saline (1 ml.) was further given intracutaneously in a single dose of 0.3 ml. divided equally (0.1 ml.) to 3 places of the same rats. (The third immunization).
One week after the third administration, blood samples were collected from rats and treated in substantially the same manner as described in the above item (a). The antisera thus obtained were stored at -80° C. prior to use.
(§1) (2) Inhibition test of P.C.A. (Passive Cutaneous Anaphylaxis) reaction
(§2) (a) Inhibitory effect on P.C.A. reaction in S.D. strain rats
(§3) Fifteen male S.D. strain rats aged 8 weeks, each weighing about 270 g were divided equally into 3 groups.
(§4) A rat reaginic antiserum (0.07 ml.) as prepared by the above (1)-(a) was given intracutaneously to the depilated back of each rat of Group I and Group II. On the other hand, a rat normal serum (0.07 ml.) was given intracutaneously to the depilated back of each rat of Group III, respectively.
(§5) Thirty hours after the administration, a normal saline (0.5 ml.) containing egg albumin (7.5 mg.) and Evans blue (2.5 mg.) was intravenously given to each rat of Groups I-III in order to bring about P.C.A., respectively.
(§6) Beforehand, 3 hours, 1 hour and […] before the intravenous administration to bring about P.C.A., a normal saline (1 ml.) containing the prescribed amount of N-methyllaurotetanine hydrochloride and carboxymethylcellulose (0.5 %) was given orally, intraperitoneally or intravenously to each rat of Group I and a normal saline (1 ml.) containing only carboxymethylcellulose (0.5% was also given orally, intraperitoneally or intravenously to each rat of Group II.
(§7) Thirty minutes after challenge with antigen, the animals were sacrificed and then skinned. To each of the sensitized spots punched, was added a mixture (7 ml.) of acetone and 2% aqueous sodium alkylbenzenesulfonate solution (4:1) and then the mixture was homogenized. The homogenate was shaken at ambient temperature for 2 hours and filtered. Optical density at 620 nm of the filtrate was determined and from the value of the optical density, inhibitory effect of P.C.A. reaction was calculated by using the following equation. [formula] A: Optical Density Value of Group II B: Optical Density Value of Group I
(§8) C: Optical Density Value of Group III
Further, an inhibition test on P.C.A. reaction using the rat hyperimmuneantiserum against egg albumin was carried out in substantially the same manner as described in the above, excepting that the intravenous administration to bring about P.C.A. was carried out at 5.5 hours after the administration of the serum and antiserum. And inhibitory effect on the P.C.A. reaction was also calculated in substantially the same manner as described in the above.

[2] = test system: anaphylactic asthma in guinea-pigs; assay: Inhibition test of anaphylactic asthma in guinea-pigs; conditions: intraperitoneal, survived more than 7 minutes
Experimental: (c) Guinea-pig antiserum against egg albumin
A solution of egg albumin (10 mg.) in normal saline (1 ml.) was mixed with incomplete adjuvant (1 ml.) to give an emulsion. The emulsion was given subcutaneously in a single dose of 0.4 ml. divided equally (0.1 ml.) to the four pads of male Hartley strain guinea-pigs, each weighing 350-380 g.
Two weeks after the administration, a solution of egg albumin (1 mg.) in normal saline (1 ml.) was further given subcutaneously in a single dose of 0.4 ml divided equally (0.1 ml.) to the four pads of the same guinea-pigs.
Subsequently, one week and two weeks after the second adminstration, the guinea-pigs were treated in substantially the same manner as the above second administration.
One week after the final administration, blood samples were collected from the guinea-pigs and treated in substantially the same manner as described in the above item (a). The antisera thus obtained were stored at -80° C. prior to use.
(3) Inhibition test of anaphylactic asthma in guinea-pigs
To ten male Hartley strain guinea-pigs, weighing 300 g was given intravenously the guinea-pig antiserum against egg albumin (0.1 ml.), respectively. Twenty four hours after the administration, each of the guinea-pigs was put individually into each of boxes (innercapacity: 5.3 liters). A normal saline containing egg albumine (1%) was continuously sprayed with a nebulizer into the boxes.
Beforehand, one hour and 30 seconds before putting the guinea-pigs into each of the boxes, a normal saline (1 ml.) containing the prescribed amount of N-methylaurotetanine hydrochloride and carboxymethylcellulose (0.5%) was given intraperitoneally to five guinea-pigs and a normal saline (1 ml.) containing only carboxymethylcellulose (0.5%) was given intraperitoneally to each of the remaining 5 guinea-pigs. Time till the test animal was suffocated to death, was measured and when animals survived more than 7 minutes, inhibition of anaphylactic asthma were judged as effective. Survival (%) was calculated by the following formula: [formula]

[3] = test system: P.C.A. reaction in S.D. strain rats; assay: Inhibition test of P.C.A. (Passive Cutaneous Anaphylaxis) reaction in S.D. strain rats, rat reaginic antiserum against egg albumin
Experimental: (a) Rat reaginic antiserum against egg albumin
A solution of egg albumin (2 mg) in B. pertussis-diphtheria-tetanus mixed vaccine (1 ml.) (made by Takeda Chemical Industries Ltd.) was mixed with an equal volume of incomplete adjuvant (made by Difco Laboratories) to give an emulsion. The emulsion was given subcutaneously in a single dose of 1 ml. divided equally (0.25 ml.) to the four foot pads of male S.D. (Sprague-Dawley) strain rats aged 8 weeks, each weighing about 300 g.
Five days after the administration, a solution of egg albumin (0.5 mg.) in B. pertussis-diphtheria-tetanus mixed vaccine (0.5 ml.) was further given intramuscularly in a single dose of 0.5 ml. divided equally (0.25 ml.) to 2 places of thigh of the same rats.
Three days after the second administration, blood samples were collected from femoral artery of the rats and allowed to stand at ambient temperature for 5 hours. The separated supernatant was centrifuged at 4° C. (10,000 r.p.m.× 1 hour). The antisera thus obtained were stored at -80° C. prior to use.
as §1, §2, §3, §4, §5, §6, §7, §8

## COc1cc2c(cc1O)CC1c3c(cc(OC)c(OC)c3-2)CCN1C (stereo not drawn) [N-Methyllaurotetanine hydrochloride]
[1]; intraperitoneal, 4 mg/kg
  Inhibitory effect on P.C.A. reaction: 20%
[1]; intraperitoneal, 13 mg/kg
  Inhibitory effect on P.C.A. reaction: 60%
[1]; intraperitoneal, 40 mg/kg
  Inhibitory effect on P.C.A. reaction: 72%
[1]; intravenous
  ED50: 4 mg/kg
[1]; intravenous, 1 mg/kg
  Inhibitory effect on P.C.A. reaction: 23%
[1]; intravenous, 3 mg/kg
  Inhibitory effect on P.C.A. reaction: 46%
[1]; intravenous, 9 mg/kg
  Inhibitory effect on P.C.A. reaction: 65%
[1]; ip, intraperitoneal
  ED50: 11 mg/kg
[1]; oral
  ED50: 110 mg/kg
[1]; oral, 20 mg/kg
  Inhibitory effect on P.C.A. reaction: 42%
[1]; oral, 66 mg/kg
  Inhibitory effect on P.C.A. reaction: 33%
[1]; oral, 200 mg/kg
  Inhibitory effect on P.C.A. reaction: 81%
[2]; 30 mg/kg
  Survival: 0%
[2]; 60 mg/kg
  Survival: 40%
[2]; 120 mg/kg
  Survival: 80%
[3]; intraperitoneal, 4 mg/kg
  Inhibitory effect on P.C.A. reaction: 6%
[3]; intraperitoneal, 13 mg/kg
  Inhibitory effect on P.C.A. reaction: 80%
[3]; intraperitoneal, 40 mg/kg
  Inhibitory effect on P.C.A. reaction: 85%
[3]; intravenous
  ED50: 2.5 mg/kg
[3]; intravenous, 1 mg/kg
  Inhibitory effect on P.C.A. reaction: 24%
[3]; intravenous, 3 mg/kg
  Inhibitory effect on P.C.A. reaction: 57%
[3]; intravenous, 9 mg/kg
  Inhibitory effect on P.C.A. reaction: 85%
[3]; ip, intraperitoneal
  ED50: 4.8 mg/kg
[3]; oral
  ED50: 100 mg/kg
[3]; oral, 20 mg/kg
  Inhibitory effect on P.C.A. reaction: 16%
[3]; oral, 66 mg/kg
  Inhibitory effect on P.C.A. reaction: 35%
[3]; oral, 200 mg/kg
  Inhibitory effect on P.C.A. reaction: 85%

From patent publication US4185119A, “Antiallergic methods” (priority 1977, dated 1980)
